One assay deals with HLA-A3 class I molecule (Homo sapiens, UniProt P04439). In words: class I binding assay, HLA-A3. Particulars: Table 2 MAGE CTL targets, column A3; unit not given. Here is the method: (§1) Peptides comprising the CTL epitopes are synthesized and the ability to bind appropriate MHC molecules is determined in assays using, for example, purified class I molecules and radioiodinated peptides and/or cells expressing empty class I molecules by, for instance, immunofluorescent staining and flow microfluorimetry, peptide-dependent class I assembly assays, and inhibition of CTL recognition by peptide competition. Those peptides that bind to the class I molecule are further chosen for their ability to serve as targets for CTLs derived from afflicted individuals, as well as for their capacity to induce primary in vitro or in vivo CTL responses that can give rise to CTL populations capable of reacting with tumor cells as therapeutic agents. Methods for determining allele-specific peptides and peptide motifs are described in co-pending commonly owned applications U.S. Ser. No. 027,146 and U.S. Ser. No. 027,746, which are incorporated herein by reference.
(§2) These peptides were then evaluated as to their capacity to bind to the appropriate class I molecules using specific binding assays as described in copending and commonly owned application U.S. Ser. No. 08/027,746, incorporated herein by reference.

For a further assay, the system named is HLA-A11 class I molecule. As to the kind of experiment: class I binding assay, HLA-A11. Also on record: species or system human. The conditions noted are these: Table 2 MAGE CTL targets, column A11; unit not given. On the procedure:
as §1, §2

Another assay deals with HLA-A2 class I molecule (Homo sapiens, UniProt P04439, D140Y/D185E/D98H/E176V/E277Q/G131W/G231S/I119V/I121R/I166T/I218V/L300P/L318F/N151K/N90K/P208A/P217A/Q86G/Q94H/R138H/R169H/T345S). As to the kind of experiment: class I binding assay, HLA-A2. The conditions noted are these: Table 2 MAGE CTL targets, column A2; unit not given. On the procedure:
as §1, §2

The next assay deals with HLA-A1 class I molecule. In words: class I binding assay, HLA-A1. Particulars: Table 2 MAGE CTL targets, column A1; unit not given. Also on record: species or system human. Here is the method:
as §1, §2

A further assay relates to HLA-A24 class I molecule. In words: class I binding assay, HLA-A24. Also on record: species or system human. Particulars: Table 2 MAGE CTL targets, column A24; unit not given. On the procedure: as §1, §2
Assay [1] has as its target HLA-A1 class I molecule (human). As to the kind of experiment: class I binding assay as described in U.S. Ser. No. 08/027,746; format not described here.
Assay [2] has as its target HLA-A24.1 class I molecule (human). Described as above.

With “ALAETSYVK [Id 1072.38, MAGE-1 C-terminal peptide, position 271,9-mer, motif A03/11]”, the “A3 (binding to class I molecule)” value in the assay with HLA-A3 class I molecule was determined as 0.3100. In the assay with HLA-A11 class I molecule, the “A11 (binding to class I molecule)” value was 0.3600.

As to ALAETSYVKV [Id 1072.33], on HLA-A2 class I molecule, the “A2 (binding to class I molecule)” value came to 0.0150.

Take “DLVQEKYLEY [1072 40, MAGE-1 peptide, position 242, 10-mer, motif A03]”: in the assay with HLA-A3 class I molecule, the “A3 (binding to class I molecule)” value is given as 0.0320. Also, the “A11 (binding to class I molecule)” value with HLA-A11 class I molecule came out at 0.0051.

Take “ETSYVKVLEY [Id 1072.28, MAGE-1 C-terminal peptide, position 274, 10-mer, motif A01/11]”: the “A1 (binding to class I molecule)” value in the assay on HLA-A1 class I molecule is given as 0.5600.

For the molecule “LVQEKYLEY [Id 1072.42, MAGE-1 peptide, position 243,9-mer, motif A11]”, in the assay with HLA-A3 class I molecule, the “A3 (binding to class I molecule)” value is 0.0026. Also, the “A11 (binding to class I molecule)” value with HLA-A11 class I molecule turned out to be 0.0340.

On to “RALAETSYVK (RALAETSYVKVK) [Id 1072.39, MAGE-1 C-terminal peptide, position 270, 10-mer, motif A03/11]”, for which the “A3 (binding to class I molecule)” value with HLA-A3 class I molecule is 0.1800. Also, the “A11 (binding to class I molecule)” value with HLA-A11 class I molecule is 0.2400.

With “RVRFFFPSLR [Id 1072.37, MAGE-1 C-terminal peptide, position 290, 10-mer, motif A03/11]”, the “A3 (binding to class I molecule)” value with HLA-A3 class I molecule came to 0.4300. The “A11 (binding to class I molecule)” value in the assay on HLA-A11 class I molecule stood at 0.0089.

Take “SYVKVLEYVI [Id 1072.43, MAGE-1 C-terminal peptide, position 276, 10-mer, motif A24]”: the “A24 (binding to class I molecule)” value with HLA-A24 class I molecule turned out to be 0.0360.

As to “TSYVKVLEY [Id 1072.29, MAGE-1 C-terminal peptide, position 275,9-mer, motif A01/11]”, in the assay on HLA-A1 class I molecule, the “A1 (binding to class I molecule)” value is listed as 0.0990.

For “TSYVKVLEY [Id 1072.36, MAGE-1 C-terminal peptide, position 275,9-mer, motif A03/11]”, the “A3 (binding to class I molecule)” value in the assay with HLA-A3 class I molecule is 0.7100. Also, the “A11 (binding to class I molecule)” value in the assay with HLA-A11 class I molecule is on record as 0.0100.

In the case of YVIKVSARV [Id 1072.34], the “A2 (binding to class I molecule)” value at HLA-A2 class I molecule worked out at 0.0140.

Consider “YVIKVSARVR [Id 1072.41, MAGE-1 C-terminal peptide, position 283, 10-mer, motif A03]”, for which, in the assay with HLA-A3 class I molecule, the “A3 (binding to class I molecule)” value came to 0.0190. The “A11 (binding to class I molecule)” value with HLA-A11 class I molecule is on record as 0.0009.

B1: MAGE-1 peptide … (peptide)
peptide: TSYVKVLEY
B1: the binding value under column A1 (quantity not explained) in assay [1] stood at 0.099.

B2: MAGE-1 peptide … (peptide)
peptide: ETSYVKVLEY
Turning to B2, the binding value under column A1 (quantity not explained) in assay [1] turned out to be 0.56.

B3: MAGE-1 peptide … (peptide)
peptide: SYVKVLEYVI
With B3, the binding value under column A24 (quantity not explained) in assay [2] came out at 0.036.

The values above are taken from patent US6464980B1, “MAGE-1 c-terminal immunogenic peptides” (Epimmune Inc., priority 1993, dated 2002).
